Reference: publication PMC11062899, “De novo development of small cyclic peptides that are orally bioavailable” (Nature Chemical Biology, 2023)
“And” between values parts separate entries of the source, which are not always exact repeats. Equal entries are not always repeated. Where two headings read alike, the source gives them in different places.

Assays:
porcine pepsin = biological target: T1, porcine pepsin (Sus scrofa, UniProt P00791); assay: Peptide stability in simulated gastric fluid (SGF); assay type: in vitro ADME
T1 construct: 0.32 g of porcine pepsin (Sigma-Aldrich, P7125) was dissolved under gentle agitation; purchased Sigma-Aldrich P7125
Summary of the method: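 Peptide from a 1 mM DMSO stock was added to fluid pre-warmed at 37 °C. SGF was pH 1.2 NaCl with porcine pepsin (0.32 g per 100 ml), and SIF was pH 6.8 potassium phosphate with porcine pancreatin (1 g per 100 ml). Supernatant peptide was quantified by LC–MS, with residual expressed as T1/T0.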

[1] = Metabolic stability in rat liver microsomes (RLMs); settings: for microsomal CLint / half-life: rat
rat α-thrombin = biological target: T2, rat α-thrombin (Rattus norvegicus, UniProt P18292); assay: Protease inhibition, Ki for rat α-thrombin (fluorogenic substrate Z-Gly-Gly-Arg-AMC); assay type: biochemical; settings: rat alpha thrombin; for Slope normalized to DMSO (proteolytic substrate cleavage over time): replicates R1-R3
T2 construct: rat α-thrombin (Molecular Innovations) were used at final concentrations of 2 nM and 3 nM; purchased Molecular Innovations
Summary of the method: (§1)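 Inhibition was measured as AMC fluorescence from 50 μM substrate, monitored for 30 min at 25 °C, relative to a peptide-free control. Human and rat enzymes were present at 2 nM and 3 nM final, respectively, in 50 mM Tris-HCl pH 7.4, 150 mM NaCl, 10 mM MgCl2, 1 mM CaCl2. Ki derives from fitted IC50 via Cheng–Prusoff.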

[2] = Passive artificial membrane permeability (PAMPA)
human α-thrombin = human α-thrombin (Homo sapiens, UniProt P00734); assay: Protease inhibition, Ki for human α-thrombin (fluorogenic substrate Z-Gly-Gly-Arg-AMC); assay type: biochemical; settings: human alpha thrombin; for Slope normalized to DMSO (proteolytic substrate cleavage over time): replicates R1-R3
Summary of the method: as §1

T1 sequence (P00791 60-385): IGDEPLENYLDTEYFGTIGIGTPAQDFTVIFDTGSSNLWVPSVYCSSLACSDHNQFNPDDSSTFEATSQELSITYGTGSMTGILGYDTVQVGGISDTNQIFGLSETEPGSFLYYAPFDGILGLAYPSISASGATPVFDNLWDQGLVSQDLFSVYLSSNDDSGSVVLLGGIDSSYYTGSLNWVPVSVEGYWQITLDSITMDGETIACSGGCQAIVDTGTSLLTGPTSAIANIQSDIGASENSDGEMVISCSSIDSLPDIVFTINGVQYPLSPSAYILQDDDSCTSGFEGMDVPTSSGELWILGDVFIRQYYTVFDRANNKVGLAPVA

In the case of `O=C1C[C@H]2CCCN2C(=O)[C@H](Cc2ccccc2)NC(=O)[C@@H](NC(=O)c2ccc(Cl)s2)CCSC/C=C/CSCCN1` [compound 34], the “SGF stability, Residual peptide Average” value (porcine pepsin; after 8 h vs 0 h (TIC), average of R1-R3) is reported as 99.21, the “SGF stability, Residual peptide” value (porcine pepsin; after 8 h vs 0 h (TIC), single replicates R1-R3) is reported as 107.50 and 92.24 and 97.90 and the remaining at 8 h (porcine pepsin; simulated gi fluid, 8 h, 37 °C, pH 1.2, read-out: Proteolytic stability: SGF (8 h) % remaining) is reported as 99 ± 8%. The “TIC value of compound, 0 min, R1” value ([1]; rat liver microsomes, 0 min, replicate R1) was 12429096, the “TIC value of compound, 0 min, R3” value ([1]; rat liver microsomes, 0 min, replicate R3) was 11063826 and the “TIC value of compound, 5 min, R1” value ([1]; rat liver microsomes, 5 min, replicate R1) was 11351623. The “TIC value of compound, 5 min, R3” value ([1]; rat liver microsomes, 5 min, replicate R3) was 10806046, the “TIC value of compound, 15 min, R1” value ([1]; rat liver microsomes, 15 min, replicate R1) was 7245055 and the “TIC value of compound, 15 min, R3” value ([1]; rat liver microsomes, 15 min, replicate R3) was 6630237. For the same compound, the “TIC value of compound, 30 min, R1” value ([1]; rat liver microsomes, 30 min, replicate R1) was 4320756, the “TIC value of compound, 30 min, R3” value ([1]; rat liver microsomes, 30 min, replicate R3) was 3830533 and the “TIC value of compound, 60 min, R1” value ([1]; rat liver microsomes, 60 min, replicate R1) was 1228797. The “TIC value of compound, 60 min, R3” value ([1]; rat liver microsomes, 60 min, replicate R3) was 1213522, the microsomal CLint ([1]; CL (ul/min/mg protein), R1, RLM CL, replicate R1, unrounded) was 69.7 µL/min/mg and the microsomal CLint ([1]; CL (ul/min/mg protein), R2, RLM CL, replicate R2, unrounded) was 85.6 µL/min/mg. The microsomal CLint ([1]; CL (ul/min/mg protein), R3, RLM CL, replicate R3, unrounded) was 66.4 µL/min/mg, the half-life ([1]; Half Life (min), R1, RLM metabolic stability, replicate R1) was 19.9 min and the half-life ([1]; Half Life (min), R2, RLM metabolic stability, replicate R2) was 16.2 min. For the same compound, the half-life ([1]; Half Life (min), R3, RLM metabolic stability, replicate R3) was 20.9 min, the half-life ([1]; microsomes, Metabolic stability: Half life T1/2 (min), RLMs, mean and SD, three measurements) was 19 ± 2 min and the microsomal CLint ([1]; microsomes, Metabolic stability: RLM CL (ul/min/mg), RLMs, mean and SD, three measurements) was 74 ± 8 µL/min/mg. For the same compound, the microsomal CLint ([1]; microsomes, RLM CL, Average, average of R1-R3) was 73.9 µL/min/mg, the microsomal CLint ([1]; microsomes, RLM CL, R1, RLM CL, replicate R1, summary block) was 69.7 µL/min/mg and the microsomal CLint ([1]; microsomes, RLM CL, R2, RLM CL, replicate R2, summary block) was 85.6 µL/min/mg. For the same compound, the microsomal CLint ([1]; microsomes, RLM CL, R3, RLM CL, replicate R3, summary block) was 66.4 µL/min/mg, the Ki (rat α-thrombin; average of R1-R3, read-out: Ki Average, rat alpha thrombin inhibition) was 0.0061 µM and the “Slope normalized to DMSO (proteolytic substrate cleavage over time)” value (rat α-thrombin; peptide 1.02E-03 uM) was 78.7 and 76.8 and 72.0. The “Slope normalized to DMSO (proteolytic substrate cleavage over time)” value (rat α-thrombin; peptide 1.04E+00 uM) was 7.3 and 7.7 and 6.8, the “Slope normalized to DMSO (proteolytic substrate cleavage over time)” value (rat α-thrombin; peptide 1.27E-04 uM) was 95.1 and 95.2 and 91.8 and the “Slope normalized to DMSO (proteolytic substrate cleavage over time)” value (rat α-thrombin; peptide 1.30E-01 uM) was 20.8 and 21.8 and 17.8. The “Slope normalized to DMSO (proteolytic substrate cleavage over time)” value (rat α-thrombin; peptide 1.59E-05 uM) was 100.8 and 100.5 and 95.6, the “Slope normalized to DMSO (proteolytic substrate cleavage over time)” value (rat α-thrombin; peptide 1.63E-02 uM) was 48.6 and 45.6 and 41.9 and the “Slope normalized to DMSO (proteolytic substrate cleavage over time)” value (rat α-thrombin; peptide 1.67E+01 uM) was 5.6 and 6.1 and 3.4. The “Slope normalized to DMSO (proteolytic substrate cleavage over time)” value (rat α-thrombin; peptide 2.03E-03 uM) was 77.5 and 75.6 and 71.7, the “Slope normalized to DMSO (proteolytic substrate cleavage over time)” value (rat α-thrombin; peptide 2.08E+00 uM) was 5.5 and 7.4 and 5.0 and the “Slope normalized to DMSO (proteolytic substrate cleavage over time)” value (rat α-thrombin; peptide 2.54E-04 uM) was 90.6 and 89.3 and 85.2. The “Slope normalized to DMSO (proteolytic substrate cleavage over time)” value (rat α-thrombin; peptide 2.60E-01 uM) was 14.5 and 13.9 and 10.9, the “Slope normalized to DMSO (proteolytic substrate cleavage over time)” value (rat α-thrombin; peptide 3.18E-05 uM) was 98.5 and 99.4 and 94.0 and the “Slope normalized to DMSO (proteolytic substrate cleavage over time)” value (rat α-thrombin; peptide 3.26E-02 uM) was 34.9 (2×) and 30.9. For the same compound, the “Slope normalized to DMSO (proteolytic substrate cleavage over time)” value (rat α-thrombin; peptide 3.33E+01 uM) was 5.6 and 5.2 and 4.6, the “Slope normalized to DMSO (proteolytic substrate cleavage over time)” value (rat α-thrombin; peptide 4.07E-03 uM) was 74.5 and 73.2 and 65.7 and the “Slope normalized to DMSO (proteolytic substrate cleavage over time)” value (rat α-thrombin; peptide 4.17E+00 uM) was 6.0 and 6.5 and 4.6. For the same compound, the “Slope normalized to DMSO (proteolytic substrate cleavage over time)” value (rat α-thrombin; peptide 5.09E-04 uM) was 86.5 and 86.6 and 79.6, the “Slope normalized to DMSO (proteolytic substrate cleavage over time)” value (rat α-thrombin; peptide 5.21E-01 uM) was 8.9 and 10.7 and 8.6 and the “Slope normalized to DMSO (proteolytic substrate cleavage over time)” value (rat α-thrombin; peptide 6.36E-05 uM) was 95.0 and 93.8 and 92.2. For the same compound, the “Slope normalized to DMSO (proteolytic substrate cleavage over time)” value (rat α-thrombin; peptide 6.51E-02 uM) was 29.2 and 28.9 and 23.7, the “Slope normalized to DMSO (proteolytic substrate cleavage over time)” value (rat α-thrombin; peptide 6.67E+01 uM) was 6.0 and 6.3 and 4.0 and the “Slope normalized to DMSO (proteolytic substrate cleavage over time)” value (rat α-thrombin; peptide 7.95E-06 uM) was 103.6 and 102.5 and 98.1. For the same compound, the “Slope normalized to DMSO (proteolytic substrate cleavage over time)” value (rat α-thrombin; peptide 8.14E-03 uM) was 62.2 and 57.8 and 53.3, the “Slope normalized to DMSO (proteolytic substrate cleavage over time)” value (rat α-thrombin; peptide 8.33E+00 uM) was 4.9 and 6.7 and 5.0 and the IC50 (rat α-thrombin; single replicates R1-R3, read-out: IC50, rat alpha thrombin inhibition) was 0.013 µM and 0.0109 µM and 0.00919 µM. The Ki (rat α-thrombin; single replicates R1-R3, read-out: Ki, rat alpha thrombin inhibition) was 7.18 nM and 6.01 nM (2×) and 5.09 nM (2×) and 7.19 nM, the “PAMPA permeability: % permeability” value ([2]; 50 μM, 12–18 h, acceptor concentration relative to equilibrium) was 37 ± 1% and the Papp at 50 μM ([2]; PAMPA, pH 7.4) was 45.7 nm/s. The “Permeability% Average” value ([2]; top well sample vs theoretical equilibrium sample (TIC), average of R1-R3) was 37.0%, the Permeability% ([2]; top well sample vs theoretical equilibrium sample (TIC), single replicates R1-R3) was 36.96% and 38.34% and 35.81% and the Ki (human α-thrombin; average of R1-R3, read-out: Ki Average, human alpha thrombin inhibition) was 0.021 µM. For the same compound, the “Slope normalized to DMSO (proteolytic substrate cleavage over time)” value (human α-thrombin; peptide 1.02E-03 uM) was 77.8 and 82.6 and 87.7, the “Slope normalized to DMSO (proteolytic substrate cleavage over time)” value (human α-thrombin; peptide 1.27E-04 uM) was 85.2 and 86.3 and 97.5 and the “Slope normalized to DMSO (proteolytic substrate cleavage over time)” value (human α-thrombin; peptide 1.30E-01 uM) was 23.7 and 29.7 and 31.1. The “Slope normalized to DMSO (proteolytic substrate cleavage over time)” value (human α-thrombin; peptide 1.59E-05 uM) was 99.4 and 93.2 and 99.6, the “Slope normalized to DMSO (proteolytic substrate cleavage over time)” value (human α-thrombin; peptide 1.63E-02 uM) was 62.9 (2×) and 53.3 and the “Slope normalized to DMSO (proteolytic substrate cleavage over time)” value (human α-thrombin; peptide 2.03E-03 uM) was 91.1 and 82.2 and 86.6. For the same compound, the “Slope normalized to DMSO (proteolytic substrate cleavage over time)” value (human α-thrombin; peptide 2.54E-04 uM) was 95.6 and 96.7 and 91.7, the “Slope normalized to DMSO (proteolytic substrate cleavage over time)” value (human α-thrombin; peptide 2.60E-01 uM) was 14.6 and 25.5 and 20.4 and the “Slope normalized to DMSO (proteolytic substrate cleavage over time)” value (human α-thrombin; peptide 3.18E-05 uM) was 103.9 and 99.1 and 101.2. The “Slope normalized to DMSO (proteolytic substrate cleavage over time)” value (human α-thrombin; peptide 3.26E-02 uM) was 46.1 and 40.2 and 49.8, the “Slope normalized to DMSO (proteolytic substrate cleavage over time)” value (human α-thrombin; peptide 4.07E-03 uM) was 82.6 and 77.6 and 83.2 and the “Slope normalized to DMSO (proteolytic substrate cleavage over time)” value (human α-thrombin; peptide 5.09E-04 uM) was 88.5 and 86.7 and 91.9. The “Slope normalized to DMSO (proteolytic substrate cleavage over time)” value (human α-thrombin; peptide 5.21E-01 uM) was 17.1 and 15.0, the “Slope normalized to DMSO (proteolytic substrate cleavage over time)” value (human α-thrombin; peptide 6.36E-05 uM) was 96.5 and 103.5 and 97.9 and the “Slope normalized to DMSO (proteolytic substrate cleavage over time)” value (human α-thrombin; peptide 6.51E-02 uM) was 35.9 and 37.8 and 41.0. For the same compound, the “Slope normalized to DMSO (proteolytic substrate cleavage over time)” value (human α-thrombin; peptide 7.95E-06 uM) was 100.7 and 95.5 and 98.4, the “Slope normalized to DMSO (proteolytic substrate cleavage over time)” value (human α-thrombin; peptide 8.14E-03 uM) was 73.2 and 59.3 and 66.6 and the IC50 (human α-thrombin; single replicates R1-R3, read-out: IC50, human alpha thrombin inhibition) was 0.0302 µM and 0.02 µM and 0.0315 µM. The Ki (human α-thrombin; single replicates R1-R3, read-out: Ki, human alpha thrombin inhibition) was 23.3 nM (2×) and 15.4 nM (2×) and 24.2 nM (2×).
